Tests used:
[1] = system: SARS CoV-2 (variants) infected Calu3 cells; assay type: cell-based
TNFα, IL-6 = assay type: cell-based

Compound	inhibition of viral replication (SARS CoV2 N protein mRNA) [1]	inhibition of inflammatory cytokine production (TNFα, IL-6 mRNA) (TNFα, IL-6)
sitagliptin monohydrate phosphate	equally effective	equally effective
N[C@@H](CC(=O)N1CCn2c(nnc2C(F)(F)F)C1)Cc1cc(F)c(F)cc1F [sitagliptin]	equally effective	equally effective

Source: patent US12642799B2, “Composition and method for treating COVID-19” (University of South Florida, priority 2021, dated 2026)
